Experimental data taken from patent publication US20090054403A1, “Treatment of Post-Traumatic Stress Disorder” (priority 2007, published 2009).

What was measured:
[1] = target: 5-HT1A serotonin receptors (Homo sapiens, UniProt P08908); assay: Radioligand binding assay
Method: (§1) The activity of nepicastat at twelve selected enzymes and receptors was determined using established assays. Details of individual receptor radioligand binding assays can be found in Wong et al (1993). Binding data were analyzed by iterative curve-fitting to a four parameter logistic equation. Ki values were calculated from IC50 values using the Cheng-Prusoff equation. Enzyme inhibitory activity was expressed as IC50 (concentration required to produce 50% inhibition of enzyme activity). Male SHRs (15-16 weeks old, Charles River, Wilmington, Mass., USA) were used in the study. On the day of the study, animals were weighed and randomly assigned to be dosed with either vehicle (control) or the appropriate dose of nepicastat (3, 10, 30 or 100 mg.kg^−1, po) or (R)-5-Aminomethyl-1-(5,7-difluoro-1,2,3,4-tetrahydronaphth-2-yl)-2,3-dihydro-2-thioxo-1H-imidazole hydrochloride (30 mg.kg^−1, po) three consecutive times, twelve hours apart. At six hours after the third dose, the rats were anaesthetized with halothane, decapitated and tissues (cerebral cortex, mesenteric artery and left ventricle) were rapidly harvested, weighed, placed in iced perchloric acid (0.4 M), frozen in liquid nitrogen and stored at −70° C. until subsequent analysis. To quantify noradrenaline and dopamine concentrations, tissues were homogenized by brief sonication and centrifuged at 13,000 rpm for 30 minutes at 4° C. The supernatant, spiked with 3,4-dihydroxybenzylamine (internal standard), was assayed for noradrenaline and dopamine by HPLC using electrochemical detection.
(§2) In vitro assay of selected enzymes and neurotransmitter receptors. The activity of 2a at eleven different enzymes was determined using established assays (PanLabs Inc, Foster City, Calif.). The affinity of 2a for thirteen selected receptors was determined by radioligand binding assays using standard filtration techniques and membrane preparations. Binding data were analyzed by iterative curve fitting to a four parameter logistic equation. Ki values were calculated using the Cheng-Prusoff equation.

D1 dopamine receptors = D1 dopamine receptors (Homo sapiens, UniProt P21728); assay: Radioligand binding assay
Chain of D1 dopamine receptors (P21728 whole entry): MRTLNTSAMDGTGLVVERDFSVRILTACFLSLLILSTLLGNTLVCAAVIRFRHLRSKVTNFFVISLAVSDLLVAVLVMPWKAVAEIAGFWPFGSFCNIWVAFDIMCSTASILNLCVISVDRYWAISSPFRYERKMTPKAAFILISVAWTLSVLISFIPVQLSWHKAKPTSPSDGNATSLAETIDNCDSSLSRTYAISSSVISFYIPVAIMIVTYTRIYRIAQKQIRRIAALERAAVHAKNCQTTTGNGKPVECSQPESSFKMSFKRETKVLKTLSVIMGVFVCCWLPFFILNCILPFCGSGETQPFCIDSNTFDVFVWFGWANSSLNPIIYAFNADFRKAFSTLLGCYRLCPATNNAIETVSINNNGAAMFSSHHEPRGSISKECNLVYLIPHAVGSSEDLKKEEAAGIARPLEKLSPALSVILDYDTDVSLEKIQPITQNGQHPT
Method: as §1, §2

D2 dopamine receptors = D2 dopamine receptors (Homo sapiens, UniProt P14416); assay: Radioligand binding assay
Chain of D2 dopamine receptors (P14416 whole entry): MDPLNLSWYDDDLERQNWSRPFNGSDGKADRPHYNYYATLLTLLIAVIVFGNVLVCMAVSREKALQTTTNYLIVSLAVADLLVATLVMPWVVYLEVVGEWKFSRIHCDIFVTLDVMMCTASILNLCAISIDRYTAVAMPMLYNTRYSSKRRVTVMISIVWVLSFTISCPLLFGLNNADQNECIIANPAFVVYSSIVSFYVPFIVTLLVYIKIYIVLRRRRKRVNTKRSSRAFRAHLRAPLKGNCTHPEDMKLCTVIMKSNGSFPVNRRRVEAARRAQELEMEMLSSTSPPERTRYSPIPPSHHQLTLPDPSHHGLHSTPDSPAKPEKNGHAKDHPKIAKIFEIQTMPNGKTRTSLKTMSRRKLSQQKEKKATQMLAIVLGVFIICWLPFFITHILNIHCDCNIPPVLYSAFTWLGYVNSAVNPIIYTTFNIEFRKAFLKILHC
Method: as §1, §2

M1 muscarinic receptors = M1 muscarinic receptors (Homo sapiens, UniProt P11229); assay: Radioligand binding assay
Chain of M1 muscarinic receptors (P11229 whole entry): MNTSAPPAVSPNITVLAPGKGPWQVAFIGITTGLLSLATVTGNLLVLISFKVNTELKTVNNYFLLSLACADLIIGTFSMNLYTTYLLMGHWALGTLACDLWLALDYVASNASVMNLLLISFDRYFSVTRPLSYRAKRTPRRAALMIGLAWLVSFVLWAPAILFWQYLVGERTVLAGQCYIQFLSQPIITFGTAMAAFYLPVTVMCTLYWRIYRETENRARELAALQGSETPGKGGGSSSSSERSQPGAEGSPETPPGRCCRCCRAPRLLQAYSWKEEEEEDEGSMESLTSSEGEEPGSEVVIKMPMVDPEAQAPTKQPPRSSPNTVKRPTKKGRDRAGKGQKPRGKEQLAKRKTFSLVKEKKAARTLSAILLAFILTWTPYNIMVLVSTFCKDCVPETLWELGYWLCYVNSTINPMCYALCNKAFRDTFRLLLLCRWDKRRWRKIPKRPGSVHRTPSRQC
Method: as §1, §2

α2A adrenoceptors = α2A adrenoceptors (Homo sapiens, UniProt P08913); assay: Radioligand binding assay
Chain of α2A adrenoceptors (P08913 whole entry): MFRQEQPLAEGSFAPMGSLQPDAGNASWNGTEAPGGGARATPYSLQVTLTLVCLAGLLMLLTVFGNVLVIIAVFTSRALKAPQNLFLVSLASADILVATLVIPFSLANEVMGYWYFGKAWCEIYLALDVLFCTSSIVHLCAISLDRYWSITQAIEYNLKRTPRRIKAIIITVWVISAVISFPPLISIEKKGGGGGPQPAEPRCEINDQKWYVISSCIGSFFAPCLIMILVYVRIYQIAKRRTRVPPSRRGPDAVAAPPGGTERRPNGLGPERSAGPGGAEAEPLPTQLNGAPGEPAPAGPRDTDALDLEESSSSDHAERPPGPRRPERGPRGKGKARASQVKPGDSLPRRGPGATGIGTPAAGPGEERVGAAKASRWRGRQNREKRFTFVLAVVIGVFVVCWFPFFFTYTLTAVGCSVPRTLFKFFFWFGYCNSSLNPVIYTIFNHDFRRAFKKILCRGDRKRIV
Method: as §1, §2

β1 adrenoceptors = β1 adrenoceptors (Homo sapiens, UniProt P08588); assay: Radioligand binding assay
Chain of β1 adrenoceptors (P08588 whole entry): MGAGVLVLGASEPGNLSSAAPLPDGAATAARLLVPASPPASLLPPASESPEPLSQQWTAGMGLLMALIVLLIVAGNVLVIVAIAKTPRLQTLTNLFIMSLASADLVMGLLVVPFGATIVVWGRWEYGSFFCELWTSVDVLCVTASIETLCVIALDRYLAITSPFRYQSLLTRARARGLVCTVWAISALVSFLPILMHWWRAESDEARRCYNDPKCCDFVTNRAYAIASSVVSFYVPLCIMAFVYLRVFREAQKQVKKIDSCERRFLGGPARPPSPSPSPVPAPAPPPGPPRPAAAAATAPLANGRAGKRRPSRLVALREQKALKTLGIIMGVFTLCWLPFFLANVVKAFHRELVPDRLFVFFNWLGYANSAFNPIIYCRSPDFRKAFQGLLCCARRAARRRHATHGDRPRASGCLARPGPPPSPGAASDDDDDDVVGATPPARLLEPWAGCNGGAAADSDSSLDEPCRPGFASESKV
Method: as §1, §2

β2 adrenoceptors = β2 adrenoceptors (Homo sapiens, UniProt P07550); assay: Radioligand binding assay
Chain of β2 adrenoceptors (P07550 whole entry): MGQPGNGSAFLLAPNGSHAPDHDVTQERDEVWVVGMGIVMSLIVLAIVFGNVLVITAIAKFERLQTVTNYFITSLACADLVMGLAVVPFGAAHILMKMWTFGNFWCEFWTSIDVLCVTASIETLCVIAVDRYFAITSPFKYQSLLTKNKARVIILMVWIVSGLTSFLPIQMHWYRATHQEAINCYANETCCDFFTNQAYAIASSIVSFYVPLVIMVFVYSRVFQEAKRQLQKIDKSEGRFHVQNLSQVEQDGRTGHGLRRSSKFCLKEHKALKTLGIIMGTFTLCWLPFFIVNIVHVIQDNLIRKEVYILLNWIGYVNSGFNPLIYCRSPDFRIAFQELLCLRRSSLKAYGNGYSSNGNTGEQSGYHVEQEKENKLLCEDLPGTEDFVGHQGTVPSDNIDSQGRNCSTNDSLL
Method: as §1, §2

μ opioid receptors = μ opioid receptors (Homo sapiens, UniProt P35372); assay: Radioligand binding assay
Chain of μ opioid receptors (P35372 whole entry): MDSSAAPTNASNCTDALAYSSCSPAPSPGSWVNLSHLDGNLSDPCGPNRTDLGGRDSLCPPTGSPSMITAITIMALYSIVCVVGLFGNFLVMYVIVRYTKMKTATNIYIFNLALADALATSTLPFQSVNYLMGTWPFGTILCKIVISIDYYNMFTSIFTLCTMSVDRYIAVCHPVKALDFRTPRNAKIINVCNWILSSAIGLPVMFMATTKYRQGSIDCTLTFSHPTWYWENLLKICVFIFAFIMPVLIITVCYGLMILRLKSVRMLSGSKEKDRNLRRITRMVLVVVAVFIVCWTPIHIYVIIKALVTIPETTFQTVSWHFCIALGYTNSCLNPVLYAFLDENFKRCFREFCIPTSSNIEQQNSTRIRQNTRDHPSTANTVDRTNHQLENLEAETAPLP
Method: as §1, §2

[2] = tested on: dopamine and norepinephrine levels; assay: 24 hour time course of tissue catecholamines in SHR after a single oral dose; format: in vivo, spontaneously hypertensive rats
Method: The purpose of this study was to determine the 24 hours time course of the effects of nepicastat (10 mg/kg) on dopamine and norepinephrine levels in the mesenteric artery following a single oral dose in spontaneously hypertensive rats. Catecholamine levels were measured at 1, 2, 4, 6, 8, 12, 16, and 24 hours after a single oral administration of either nepicastat (10 mg/kg) or vehicle (dH2O; 10 ml/kg).
Sixteen-17 week old, male spontaneous hypertensive rats (SHR) rats weighing 300-400 grams were allowed food and water ad libitum. Animals were weighed and randomly assigned, the afternoon before the study, to one of the following treatment groups (n=9 per group): […] of vehicle (10 ml/kg) to be sacrificed at 1, 2, 4, 6, 8, 12, 16, or 24 hours. nepicastat was synthesized as the hydrochloride salt by the Institute of Organic Chemistry, Syntex Discovery Research and obtained from Syntex Central Compound Inventory. nepicastat was dissolved in vehicle (dH2O) to yield an oral dose that could be administered in repeated volumes of 10 ml/kg. All doses of nepicastat were administered as free base equivalents and prepared the morning of administration. Animals were dosed every […] the morning of sacrifice. At 1, 2, 4, 6, 8, 12, 16 and 24 hours following administration, 9 treated animals and 9 vehicle animals were anesthetized with halothane, decapitated, and the left ventricle and mesenteric artery were rapidly harvested and weighed. The mesenteric artery was put in 0.5 ml of 0.4M perchloric acid in a centrifuge tube and the left ventricle put into an empty cryotube. Both tissues were immediately frozen in liquid nitrogen and stored at −70° C. Mesenteric artery catecholamine levels were determined using HPLC with electrochemical detection. At the time of decapitation, plasma samples were taken by draining blood from the carcass into a tube containing heparin, and centrifuging at 4° C.
Each treatment group was compared to vehicle at each time point. A two way analysis of variance (ANOVA) with effects TRT, HARVEST and their interaction was performed. A one way ANOVA with factor TRT was performed for each harvest time.

[3] = tested on: sympathetically-evoked functional responses; assay: Sympathetically-evoked functional responses in anesthetized dogs; format: in vivo, beagle dogs

Chain of 5-HT1A serotonin receptors (P08908 whole entry): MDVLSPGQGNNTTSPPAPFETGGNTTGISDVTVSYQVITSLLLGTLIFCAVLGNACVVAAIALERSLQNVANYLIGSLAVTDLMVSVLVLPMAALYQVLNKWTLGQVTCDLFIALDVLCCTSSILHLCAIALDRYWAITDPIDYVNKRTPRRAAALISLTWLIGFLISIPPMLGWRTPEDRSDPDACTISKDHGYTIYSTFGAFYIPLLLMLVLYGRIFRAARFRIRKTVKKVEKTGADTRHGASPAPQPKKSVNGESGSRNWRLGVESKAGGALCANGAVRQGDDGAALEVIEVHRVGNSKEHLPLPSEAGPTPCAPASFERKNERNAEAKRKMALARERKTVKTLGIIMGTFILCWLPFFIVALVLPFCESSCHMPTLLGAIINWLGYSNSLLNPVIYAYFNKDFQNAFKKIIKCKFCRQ

Cl.NCc1c[nH]c(=S)n1[C@H]1CCc2c(F)cc(F)cc2C1 [nepicastat, (S)-5-Aminomethyl-1-(5,7-difluoro-1,2,3,4-tetrahydronaphth-2-yl)-2,3-dihydro-2-thioxo-1H-imidazole hydrochloride]
Ki [1]: > 10 µM | Ki (D1 dopamine receptors): > 10 µM | Ki (D2 dopamine receptors): > 10 µM | Ki (M1 muscarinic receptors): > 10 µM | Ki (α2A adrenoceptors): > 10 µM | Ki (β1 adrenoceptors): > 10 µM | Ki (β2 adrenoceptors): > 10 µM | Ki (μ opioid receptors): > 10 µM | duration of increase in dopamine/norepinephrine ratio ([2]; 10 mg/kg oral, mesenteric artery): 12 h | dopamine vs vehicle, mesenteric artery ([2]; 10 mg/kg single oral, 1-24 h): significantly (p<0.05) higher than those of vehicle at the 2 and 6 hr harvest times | dopamine/norepinephrine ratio vs vehicle, mesenteric artery ([2]; 10 mg/kg single oral, 1-24 h): significantly (p<0.05) greater than those of vehicle treated animals at the 1, 2, 4, 6 and 12 hour time points | norepinephrine vs vehicle, mesenteric artery ([2]; 10 mg/kg single oral, 1-24 h): significantly (p<0.05) lower than vehicle only at the 4 hr time point | duration of increase in dopamine/norepinephrine ratio ([2]; 30 mg/kg oral, left ventricle): 24 h | heart rate response to i.v. tyramine challenge ([3]; 10 mg/kg/d for 4.5 days): significantly reduced the increase in heart rate | inhibition of responses to renal nerve stimulation and carotid artery occlusion ([3]; 30 mg/kg intraduodenally, up to 5 hours): did not significantly inhibit
